# Assay results as given in DBAASP.
# How the values were obtained:
# Assay in all cases: ≥ marks a high value that may be exact or a test limit, other limits are often not marked, values filed in µg/mL are converted to µM
# Escherichia coli = system: Escherichia coli
# [1] = system: Escherichia coli ATCC 25922
# [2] = system: Enterococcus faecalis ATCC 29212
# Staphylococcus aureus = system: Staphylococcus aureus
# Pseudomonas aeruginosa = system: Pseudomonas aeruginosa
# [3] = system: Candida albicans ATCC 90028
# [4] = system: Staphylococcus aureus ATCC 29213
# [5] = system: Pseudomonas aeruginosa ATCC 27853
MIC [1] [µM],MIC (Pseudomonas aeruginosa) [µM],MIC [4] [µM],Compound,other results
–,–,–,CC(C)[C@@H]1NC(=O)[C@@H]2CSSC[C@H](NC(=O)[C@H](Cc3ccc(O)cc3)NC(=O)[C@@H](N)CSSC[C@@H](C(=O)O)NC1=O)C(=O)N[C@@H](CCCN=C(N)N)C(=O)N[C@@H](CCCN=C(N)N)C(=O)N[C@@H](CCCN=C(N)N)C(=O)N[C@@H](Cc1ccccc1)C(=O)N2 [CYCRRRFCVC],MIC (Escherichia coli): 10.8 µM
34.2,–,–,CSCC[C@H](NC(=O)[C@H](CCCN=C(N)N)NC(=O)[C@H](Cc1c[nH]c2ccccc12)NC(=O)[C@H](CCC(N)=O)NC(=O)[C@H](Cc1c[nH]c2ccccc12)NC(=O)[C@H](CCCN=C(N)N)NC(=O)[C@H](CCCN=C(N)N)NC(=O)[C@H](C)NC(=O)[C@H](CCCCN)NC(=O)[C@@H](N)Cc1ccccc1)C(=O)O [FKARRWQWRM],MIC [2]: 68.4 µM
–,> 75,–,CC[C@H](C)[C@H](NC(=O)CN)C(=O)N[C@@H](C)C(=O)N[C@@H](CCCCN)C(=O)N[C@@H](Cc1ccccc1)C(=O)NCC(=O)N[C@@H](CCCCN)C(=O)N[C@@H](C)C(=O)N[C@@H](C)C(=O)N[C@@H](C)C(=O)N[C@@H](Cc1cnc[nH]1)C(=O)N[C@@H](Cc1ccccc1)C(=O)NCC(=O)N[C@@H](CCCCN)C(=O)N[C@@H](CCCCN)C(=O)N[C@@H](Cc1c[nH]c2ccccc12)C(=O)N[C@H](C(=O)NCC(=O)N[C@@H](CCC(=O)O)C(=O)N[C@@H](CC(C)C)C(=O)N[C@@H](CCSC)C(=O)N[C@@H](CC(N)=O)C(=O)N[C@@H](CO)C(N)=O)C(C)C [GIAKFGKAAAHFGKKWVGELMNS],MIC (Staphylococcus aureus): > 75 µM; MIC (Escherichia coli): 75 µM
–,76,–,CC[C@H](C)[C@H](NC(=O)CN)C(=O)NCC(=O)N[C@@H](CCCCN)C(=O)N[C@@H](Cc1ccccc1)C(=O)N[C@H](C(=O)N[C@@H](Cc1cnc[nH]1)C(=O)N[C@@H](CO)C(=O)N[C@@H](C)C(=O)N[C@@H](CCCCN)C(=O)N[C@@H](CCCCN)C(=O)N[C@@H](Cc1ccccc1)C(=O)NCC(=O)N[C@@H](CCCCN)C(=O)N[C@@H](CC(C)C)C(=O)N[C@@H](Cc1ccccc1)C(=O)N[C@H](C(=O)NCC(=O)N[C@@H](CCC(=O)O)C(=O)N[C@H](C(=O)N[C@@H](CCSC)C(=O)N[C@@H](CC(N)=O)C(=O)N[C@@H](CO)C(N)=O)[C@@H](C)CC)C(C)C)[C@@H](C)CC [GIGKFIHSAKKFGKLFVGEIMNS],MIC (Staphylococcus aureus): 38 µM; MIC (Escherichia coli): 26.9 µM
23,–,–,CC[C@H](C)[C@H](NC(=O)CN)C(=O)N[C@@H](CCSC)C(=O)N[C@@H](CC(=O)O)C(=O)N[C@H](C(=O)N[C@H](C(=O)N[C@@H](CCCCN)C(=O)N[C@@H](CC(N)=O)C(=O)N[C@@H](C)C(=O)N[C@@H](C)C(=O)N[C@@H](CCCCN)C(=O)N[C@@H](CC(=O)O)C(=O)N[C@@H](CC(C)C)C(=O)N[C@@H](C)C(=O)NCC(=O)N[C@@H](CCC(N)=O)C(=O)N[C@@H](CC(C)C)C(=O)N[C@@H](CC(=O)O)C(=O)N[C@@H](CCCCN)C(=O)N[C@@H](CC(C)C)C(=O)N[C@@H](CCCCN)C(=O)N[C@H]1CSSC[C@@H](C(=O)O)NC(=O)CNC(=O)[C@H]([C@@H](C)O)NC(=O)[C@H]([C@@H](C)CC)NC(=O)[C@H](CCCN=C(N)N)NC1=O)C(C)C)[C@@H](C)O [GIMDTVKNAAKDLAGQLDKLKCRITGC],MIC [3]: ≥ 130 µM
–,–,–,CC[C@@H](C)[C@H](N=C(O)[C@H](CCCCN)N=C(O)[C@H](CS)N=C(O)[C@H](CCCCN)N=C(O)[C@H](CC(C)C)N=C(O)CN=C(O)C(CCC(=O)O)N=C(O)[C@H](CC(C)C)N=C(O)[C@H](CCCCN)N=C(O)CN=C(O)[C@H](C)N=C(O)[C@H](N=C(O)[C@H](CC(=O)O)N=C(O)[C@H](CCCCN)N=C(O)[C@H](C)N=C(O)[C@H](C)N=C(O)CN=C(O)C(CCCCN)N=C(O)C(CC(C)C)N=C(O)[C@H](N=C(O)C(CC(=O)O)N=C(O)[C@H](CC(C)C)N=C(O)[C@H](Cc1ccccc1)N=C(O)C(CC(C)C)N=C(O)CN)C(C)O)C(C)C)C(O)=N[C@H](C(O)=NCC(O)=N[C@H](CS)C(O)=N[C@H](CCCCN)C(O)=N[C@H](CC(C)C)C(=O)N1CCCC1C(=O)O)[C@@H](C)O (stereo not given in full) [GLFLDTLKGAAKDVAGKLEGLKCKITGCKLP],MIC (Staphylococcus aureus): 60 µM
> 80,–,> 80,CC(=O)N[C@@H](CCCCN)C(=O)N[C@@H](CC(C)C)C(=O)N[C@@H](CC(C)C)C(=O)N[C@@H](CCCCN)C(=O)N[C@@H](CC(C)C)C(=O)N[C@@H](CC(C)C)C(=O)N[C@@H](CCCCN)C(=O)N[C@@H](CCCCN)C(=O)N1CCC[C@H]1C(=O)N[C@@H](CC(C)C)C(=O)N[C@@H](CCCCN)C(=O)N[C@@H](CC(C)C)C(=O)N[C@@H](CC(C)C)C(=O)N[C@@H](CCCCN)C(N)=O [KLLKLLKKPLKLLK],–
1.25,–,2.5,CC[C@H](C)[C@H](NC(=O)[C@H](CCCN=C(N)N)NC(=O)[C@H](CCC(N)=O)NC(=O)[C@@H](NC(=O)[C@@H](NC(=O)[C@H](CCCN=C(N)N)NC(=O)[C@@H](N)CCCCN)[C@@H](C)CC)C(C)C)C(=O)N[C@@H](CCCCN)C(=O)N[C@@H](C)C(=O)N[C@@H](Cc1ccccc1)C(=O)N[C@@H](CC(C)C)C(=O)N[C@@H](CCCN=C(N)N)C(=O)O [KRIVQRIKAFLR],MIC [3]: 5 µM; MIC [5]: 1.25 µM
20,–,40,CC[C@H](C)[C@H](NC(=O)[C@H](CCCN=C(N)N)NC(=O)[C@@H](N)CCCCN)C(=O)N[C@H](C(=O)N[C@@H](CCC(N)=O)C(=O)N[C@@H](CCCN=C(N)N)C(=O)N[C@@H](CCCCN)C(=O)N[C@@H](CCCCN)C(=O)N[C@@H](CC(=O)O)C(=O)N[C@@H](Cc1ccccc1)C(=O)N[C@@H](CC(C)C)C(=O)N[C@@H](CCCN=C(N)N)C(=O)O)C(C)C [KRIVQRKKDFLR],MIC [3]: ≥ 40 µM; MIC [5]: 40 µM
1.25,–,10,CC[C@H](C)[C@H](NC(=O)[C@H](CCCN=C(N)N)NC(=O)[C@H](CCC(N)=O)NC(=O)[C@@H](NC(=O)[C@H](CCCCN)NC(=O)[C@H](CCCN=C(N)N)NC(=O)[C@@H](N)CCCCN)C(C)C)C(=O)N[C@@H](CCCCN)C(=O)N[C@@H](CC(=O)O)C(=O)N[C@@H](Cc1ccccc1)C(=O)N[C@@H](CC(C)C)C(=O)N[C@@H](CCCN=C(N)N)C(=O)O [KRKVQRIKDFLR],MIC [3]: 20 µM; MIC [5]: 2.5 µM
–,–,–,CC[C@H](C)[C@H](NC(=O)[C@H](Cc1ccc(O)cc1)NC(=O)[C@H](Cc1c[nH]c2ccccc12)NC(=O)[C@H](CC(C)C)NC(=O)[C@H](Cc1c[nH]c2ccccc12)NC(=O)[C@H](CCCN=C(N)N)NC(=O)[C@@H](NC(=O)[C@@H](NC(=O)[C@H](CCCN=C(N)N)NC(=O)[C@H](Cc1ccccc1)NC(=O)[C@H](Cc1c[nH]c2ccccc12)NC(=O)[C@H](CCCN=C(N)N)NC(=O)[C@H](Cc1c[nH]c2ccccc12)NC(=O)[C@H](CC(C)C)NC(=O)[C@H](CCCN=C(N)N)NC(=O)[C@H](C)NC(=O)[C@H](Cc1c[nH]c2ccccc12)NC(=O)[C@@H](N)CCCCN)[C@@H](C)CC)[C@@H](C)O)C(=O)N[C@@H](CCCCN)C(N)=O [KWARLWRWFRITRWLWYIK],MIC (Staphylococcus aureus): > 36.2 µM; MIC (Escherichia coli): > 36.2 µM
–,20.6,–,CC[C@H](C)[C@H](NC(=O)[C@H](Cc1ccccc1)NC(=O)[C@H](CO)NC(=O)[C@H](CCCCN)NC(=O)[C@H](Cc1c[nH]c2ccccc12)NC(=O)[C@@H](N)CCCCN)C(=O)N[C@@H](CCCCN)C(=O)N[C@@H](CCCCN)C(=O)N[C@@H](CO)C(=O)N[C@H](C(=O)N[C@@H](CO)C(=O)N[C@@H](CCCCN)C(=O)N[C@@H](Cc1ccccc1)C(=O)N[C@@H](CC(C)C)C(=O)N[C@@H](Cc1cnc[nH]1)C(=O)N[C@@H](CO)C(=O)N[C@@H](C)C(=O)N[C@@H](CCCCN)C(=O)N[C@@H](CCCCN)C(=O)N[C@@H](Cc1ccccc1)C(N)=O)[C@@H](C)O [KWKSFIKKSTSKFLHSAKKF],–
5,–,10,CC(=O)N[C@@H](CC(C)C)C(=O)N[C@@H](CCCCN)C(=O)N[C@@H](CCCCN)C(=O)N[C@@H](CC(C)C)C(=O)N[C@@H](CC(C)C)C(=O)N[C@@H](CCCCN)C(=O)N[C@@H](CC(C)C)C(=O)N[C@@H](CC(C)C)C(=O)N[C@@H](CCCCN)C(=O)N[C@@H](CCCCN)C(=O)N[C@@H](CC(C)C)C(=O)N1CCC[C@H]1C(=O)N[C@@H](CCCCN)C(=O)N[C@@H](CC(C)C)C(N)=O [LKKLLKLLKKLPKL],–
5,–,2.5,CC(=O)N[C@@H](CC(C)C)C(=O)N[C@@H](CCCCN)C(=O)N[C@@H](CCCCN)C(=O)N[C@@H](CC(C)C)C(=O)N[C@@H](CC(C)C)C(=O)N[C@@H](CCCCN)C(=O)N[C@@H](CC(C)C)C(=O)N[C@@H](CC(C)C)C(=O)N1CCC[C@H]1C(=O)N[C@@H](CCCCN)C(=O)N[C@@H](CC(C)C)C(=O)N[C@@H](CC(C)C)C(=O)N[C@@H](CCCCN)C(=O)N[C@@H](CC(C)C)C(N)=O [LKKLLKLLPKLLKL],–
–,4.27,–,CSCC[C@H](NC(=O)[C@@H](NC(=O)[C@H](CCCN=C(N)N)NC(=O)[C@H](Cc1ccccc1)NC(=O)[C@H](C)NC(=O)[C@H](C)NC(=O)[C@H](CCCCN)NC(=O)[C@H](CC(C)C)NC(=O)[C@H](Cc1c[nH]c2ccccc12)NC(=O)[C@H](C)NC(=O)[C@@H]1CCCN1C(=O)[C@@H](N)CCCN=C(N)N)C(C)C)C(=O)N[C@@H](CCCN=C(N)N)C(=O)N[C@@H](C)C(=O)N[C@@H](CS)C(=O)N[C@H](C(N)=O)C(C)C [RPAWLKAAFRVMRACV],–
–,1.96,–,NC(=O)[C@H](CCCN=C(N)N)NC(=O)[C@H](CCCN=C(N)N)NC(=O)[C@H](Cc1c[nH]c2ccccc12)NC(=O)[C@H](Cc1c[nH]c2ccccc12)NC(=O)[C@H](CCCN=C(N)N)NC(=O)[C@H](CCCN=C(N)N)NC(=O)[C@H](Cc1c[nH]c2ccccc12)NC(=O)[C@H](Cc1c[nH]c2ccccc12)NC(=O)[C@H](Cc1c[nH]c2ccccc12)NC(=O)[C@H](CCCN=C(N)N)NC(=O)[C@H](CCCN=C(N)N)NC(=O)[C@@H](N)CCCN=C(N)N [RRRWWWRRWWRR],–
